Patent publication US9156801B2, “2-substituted oleanolic acid derivative, method preparing for same, and application thereof” (HANGZHOU BENSHENG PHARMACEUTICAL CO., LTD., priority 2011, dated 2015)
Converted amounts (≈) assume the structure as drawn.

Tests used:
H9 cell line = test: leukemia cell growth inhibition, MTT; format: cell-based; details: Homo sapiens; for IC50: H9, 72 h; for inhibition at 16 µg/mL: H9, 16 μg/mL compound, 72 h, read-out: IR (cell proliferation inhibition rate)
Description: (§1) Leukemia cell lines: leukemia cell lines: K562/adr (drug-resistant, chronic myeloid leukemia, CML), NB4 (acute promyelocytic leukemia, AML), Kasumi-1 (acute myeloid leukemia M2 type, AML-M2), Jurkat (acute lymphoblastic leukemia, ALL), all of which are donated by Cancer Research Institute of Zhejiang University, China; and H9 (acute lymphoblastic leukemia, ALL), which is purchased from China Center for Type Culture Collection (CCTCC).
(§2) Obtaining 6000 well-growing leukemia cells and inoculating them into wells of a 96-well cell culture plate. The culture medium is the 1640 cell culture medium containing 10% fetal bovine serum. After adding the 2-substituted oleanolic acid derivatives of different concentrations and mixing uniformly, placing the plate in a carbon dioxide cell incubator (5% CO2) at 37° C. and incubated for 72 hours. Then the relative number of viable cells is determined by MTT method. In this experiment, cell proliferation inhibition rate in control group (not treated with any compound) is set as 0%.

Jurkat cell line = test: leukemia cell growth inhibition, MTT; format: cell-based; details: Homo sapiens, 72 h; for inhibition at 16 µg/mL: 16 μg/mL compound, read-out: IR (cell proliferation inhibition rate)
Description: as §1, §2

K562/adr cell line = test: leukemia cell growth inhibition, MTT; format: cell-based; details: Homo sapiens, 72 h; for IC50: K562/Adr; for inhibition at 16 µg/mL: K562/adr, 16 μg/mL compound, read-out: IR (cell proliferation inhibition rate)
Description: as §1, §2

Kasumi-1 cell line = test: leukemia cell growth inhibition, MTT; format: cell-based; details: Homo sapiens; for inhibition at 16 µg/mL: Kasumi-1, 16 μg/mL compound, 72 h, read-out: IR (cell proliferation inhibition rate); for IC50: Kasumi-1, 72 h
Description: as §1, §2

NB4 cell line = test: leukemia cell growth inhibition, MTT; format: cell-based; details: Homo sapiens, NB-4; for inhibition at 16 µg/mL: NB4, 16 μg/mL compound, 72 h, read-out: IR (cell proliferation inhibition rate); for IC50: NB4, 72 h
Description: as §1, §2

RPMI8226 cell line = test: multiple myeloma cell growth inhibition, MTT; format: cell-based; details: Homo sapiens, RPMI-8226; for inhibition at 16 µg/mL: RPMI8226, 16 μg/mL compound, 72 h, read-out: IR (cell proliferation inhibition rate); for IC50: RPMI8226, 72 h
Method: Multiple myeloma cell lines: RPMI8226 (multiple myeloma), purchased from Fuxiang Bio-tech Co. Ltd., Shanghai, China.
Obtaining 6000 well-growing cells as above and inoculating them into wells of a 96-well cell culture plate. The culture medium is the 1640 cell culture medium containing 10% fetal bovine serum. After adding the 2-substituted oleanolic acid derivatives of different concentrations and mixing uniformly, placing the plate in a carbon dioxide cell incubator (5% CO2) at 37° C. and incubated for 72 hours. Then the relative number of viable cells is determined by MTT method. In this experiment, cell proliferation inhibition rate in control group (not treated with any compound) is set as 0%.

Hep G2 cell line = test: solid tumor cell growth inhibition, MTT; format: cell-based, human; details: Homo sapiens; for inhibition at 16 µg/mL: HepG2, 72 h, Hep G2, 16 μg/mL compound, 72 h, read-out: IR (cell proliferation inhibition rate); for IC50: HepG2, Hep G2, 72 h
Method: (§3) Hep-2 (laryngeal carcinoma), A549 (human lung cancer), CaES-17 (esophageal cancer cell), PC-3 (prostate cancer), CNE (nasopharyngeal carcinoma cell), and SK-OV-3 (ovarian cancer cell), all of which are purchased from China Center For Type Culture Collection; RKO (human colon adenocarcinoma cell), MGC 803 (human gastric cancer cell), MG63 (osteosarcoma) and U87 MG (malignant glioma cell), all of which are purchased from Fuxiang Bio-tech Co. Ltd., Shanghai, China; PANC-1 (pancreatic cancer), Hep G2 (human liver cancer cell), Becap37 (human breast cancer cell), and Hela (human cervical cancer cell), all of which are donated by Cancer Research Institute of Zhejiang University, China.
(§4) Obtaining 4000 well-growing human solid tumor cells and inoculating them into wells of a 96-well cell culture plate. The culture medium is DMEM High Glucose cell culture medium containing 10% fetal bovine serum. The plate is placed in a carbon dioxide cell incubator (5% CO2) at 37° C. for 24 hours. After adding the 2-substituted oleanolic acid derivatives of different concentrations and mixing uniformly, the plate is placed in a carbon dioxide cell incubator (5% CO2) at 37° C. and incubated for 72 hours. Then the relative number of the living cells is determined by MTT method. In this experiment, the cell proliferation inhibition rate in control group (not treated with any compound) is set as 0%.

A549 cell line = test: solid tumor cell growth inhibition, MTT; format: cell-based; details: Homo sapiens; for IC50: A549, 72 h; for inhibition at 16 µg/mL: A549, 16 μg/mL compound, 72 h, read-out: IR (cell proliferation inhibition rate)
Method: as §3, §4

Becap37 cell line = test: solid tumor cell growth inhibition, MTT; format: cell-based; details: Homo sapiens; for inhibition at 16 µg/mL: Becap37, 16 μg/mL compound, 72 h, read-out: IR (cell proliferation inhibition rate); for IC50: Becap37, 72 h
Method: as §3, §4

CNE cell line = test: solid tumor cell growth inhibition, MTT; format: cell-based; details: Homo sapiens, 72 h; for inhibition at 16 µg/mL: 16 μg/mL compound, read-out: IR (cell proliferation inhibition rate)
Method: as §3, §4

CaES-17 cell line = test: solid tumor cell growth inhibition, MTT; format: cell-based; details: Homo sapiens, CaEs17; for inhibition at 16 µg/mL: CaES-17, 16 μg/mL compound, 72 h, read-out: IR (cell proliferation inhibition rate); for IC50: CaES-17, 72 h
Method: as §3, §4

Hela cell line = test: solid tumor cell growth inhibition, MTT; format: cell-based; details: Homo sapiens, 72 h; for IC50: HeLa; for inhibition at 16 µg/mL: Hela, 16 μg/mL compound, read-out: IR (cell proliferation inhibition rate)
Method: as §3, §4

Hep-2 cell line = test: solid tumor cell growth inhibition, MTT; format: cell-based; details: Homo sapiens; for IC50: HEp-2, 72 h; for inhibition at 16 µg/mL: Hep-2, 16 μg/mL compound, 72 h, read-out: IR (cell proliferation inhibition rate)
Method: as §3, §4

MG-63 cell line = test: solid tumor cell growth inhibition, MTT; format: cell-based; details: Homo sapiens; for IC50: MG-63, 72 h; for inhibition at 16 µg/mL: MG-63, 16 μg/mL compound, 72 h, read-out: IR (cell proliferation inhibition rate)
Method: as §3, §4

MGC 803 cell line = test: solid tumor cell growth inhibition, MTT; format: cell-based; details: Homo sapiens; for inhibition at 16 µg/mL: MGC 803, 16 μg/mL compound, 72 h, read-out: IR (cell proliferation inhibition rate); for IC50: MGC 803, 72 h
Method: as §3, §4

PANC-1 cell line = test: solid tumor cell growth inhibition, MTT; format: cell-based; details: Homo sapiens; for IC50: PANC-1, 72 h; for inhibition at 16 µg/mL: PANC-1, 16 μg/mL compound, 72 h, read-out: IR (cell proliferation inhibition rate)
Method: as §3, §4

PC-3 cell line = test: solid tumor cell growth inhibition, MTT; format: cell-based; details: Homo sapiens; for IC50: PC-3, 72 h; for inhibition at 16 µg/mL: PC-3, 16 μg/mL compound, 72 h, read-out: IR (cell proliferation inhibition rate)
Method: as §3, §4

RKO cell line = test: solid tumor cell growth inhibition, MTT; format: cell-based; details: Homo sapiens, 72 h; for inhibition at 16 µg/mL: 16 μg/mL compound, read-out: IR (cell proliferation inhibition rate)
Method: as §3, §4

SK-OV-3 cell line = test: solid tumor cell growth inhibition, MTT; format: cell-based; details: Homo sapiens; for IC50: SK-OV-3, 72 h; for inhibition at 16 µg/mL: SK-OV-3, 16 μg/mL compound, 72 h, read-out: IR (cell proliferation inhibition rate)
Method: as §3, §4

U87 MG cell line = test: solid tumor cell growth inhibition, MTT; format: cell-based; details: Homo sapiens, U-87 MG, 72 h; for inhibition at 16 µg/mL: 16 μg/mL compound, read-out: IR (cell proliferation inhibition rate)
Method: as §3, §4

Row | IC50 (H9 cell line) | IC50 (Jurkat cell line) | IC50 (K562/adr cell line) | IC50 (Kasumi-1 cell line) | IC50 (NB4 cell line) | IC50 (RPMI8226 cell line) | IC50 (Hep G2 cell line) | IC50 (A549 cell line) | IC50 (Becap37 cell line) | IC50 (CNE cell line) | SMILES | inhibition at 16 µg/mL (H9 cell line) | inhibition at 16 µg/mL (Jurkat cell line) | inhibition at 16 µg/mL (K562/adr cell line) | inhibition at 16 µg/mL (Kasumi-1 cell line) | inhibition at 16 µg/mL (NB4 cell line) | inhibition at 16 µg/mL (RPMI8226 cell line) | inhibition at 16 µg/mL (Hep G2 cell line) | inhibition at 16 µg/mL (A549 cell line) | inhibition at 16 µg/mL (Becap37 cell line) | inhibition at 16 µg/mL (CNE cell line) | also measured
1 | > 16 µg/mL | > 16 µg/mL | 8 µg/mL (≈ 13.7 µM) | > 16 µg/mL | > 16 µg/mL | > 16 µg/mL | > 16 µg/mL | > 16 µg/mL | > 16 µg/mL | > 16 µg/mL | CCC(C)CNC(=O)C1C[C@@]2(C)C(CC[C@]3(C)C2CC=C2C4CC(C)(C)CC[C@]4(C(=O)OC)CC[C@]23C)C(C)(C)C1=O (some centres unmarked) [BS-OA-008] | 39.8% | -33.8% | 70.1% | 6.7% | 6.3% | 30% | 8.1% | 3.4% | 2.3% | 15.1% | inhibition at 16 µg/mL (CaES-17 cell line): -12.7%; IC50 (CaES-17 cell line): > 16 µg/mL; IC50 (Hela cell line): > 16 µg/mL; inhibition at 16 µg/mL (Hela cell line): 0.5%; IC50 (Hep-2 cell line): > 16 µg/mL; inhibition at 16 µg/mL (Hep-2 cell line): 3.5%; IC50 (MG-63 cell line): > 16 µg/mL; inhibition at 16 µg/mL (MG-63 cell line): -12.1%; inhibition at 16 µg/mL (MGC 803 cell line): -12.4%; IC50 (MGC 803 cell line): > 16 µg/mL; IC50 (PANC-1 cell line): > 16 µg/mL; inhibition at 16 µg/mL (PANC-1 cell line): -4.6%; IC50 (PC-3 cell line): > 16 µg/mL; inhibition at 16 µg/mL (PC-3 cell line): 12%; inhibition at 16 µg/mL (RKO cell line): -18.6%; IC50 (RKO cell line): > 16 µg/mL; IC50 (SK-OV-3 cell line): > 16 µg/mL; inhibition at 16 µg/mL (SK-OV-3 cell line): 14.3%; inhibition at 16 µg/mL (U87 MG cell line): 30.1%; IC50 (U87 MG cell line): > 16 µg/mL
2 | 3.05 µg/mL (≈ 4.99 µM) | 2.26 µg/mL (≈ 3.7 µM) | 1.09 µg/mL (≈ 1.78 µM) | 3.18 µg/mL (≈ 5.21 µM) | 2.79 µg/mL (≈ 4.57 µM) | 0.74 µg/mL (≈ 1.21 µM) | 2.36 µg/mL (≈ 3.86 µM) | 2.83 µg/mL (≈ 4.63 µM) | 4.42 µg/mL (≈ 7.23 µM) | 3.74 µg/mL (≈ 6.12 µM) | CCN(CC)CCNC(=O)C1C[C@@]2(C)C(CC[C@]3(C)C2CC=C2C4CC(C)(C)CC[C@]4(C(=O)OC)CC[C@]23C)C(C)(C)C1=O (some centres unmarked) [BS-OA-012] | 95% | 97% | 99% | 99.3% | 99.2% | 99% | > 96% | 97.4% | 98.4% | 98.8% | inhibition at 16 µg/mL (CaES-17 cell line): 99.1%; IC50 (CaES-17 cell line): 1.91 µg/mL (≈ 3.13 µM); IC50 (Hela cell line): 4.19 µg/mL (≈ 6.86 µM); inhibition at 16 µg/mL (Hela cell line): 96.9%; IC50 (Hep-2 cell line): 5.5 µg/mL (≈ 9 µM); inhibition at 16 µg/mL (Hep-2 cell line): 99.9%; IC50 (MG-63 cell line): 2.2 µg/mL (≈ 3.6 µM); inhibition at 16 µg/mL (MG-63 cell line): 100%; inhibition at 16 µg/mL (MGC 803 cell line): 100%; IC50 (MGC 803 cell line): 2.56 µg/mL (≈ 4.19 µM); IC50 (PANC-1 cell line): 4.73 µg/mL (≈ 7.74 µM); inhibition at 16 µg/mL (PANC-1 cell line): 100%; IC50 (PC-3 cell line): 5.08 µg/mL (≈ 8.32 µM); inhibition at 16 µg/mL (PC-3 cell line): 99.7%; inhibition at 16 µg/mL (RKO cell line): 97.6%; IC50 (RKO cell line): 2 µg/mL (≈ 3.27 µM); IC50 (SK-OV-3 cell line): 3.77 µg/mL (≈ 6.17 µM); inhibition at 16 µg/mL (SK-OV-3 cell line): 98.9%; inhibition at 16 µg/mL (U87 MG cell line): 98.5%; IC50 (U87 MG cell line): 2.56 µg/mL (≈ 4.19 µM)
